Measurements: patent publication US4206215A, “Antimicrobial bis-[4-(substituted-amino)-1-pyridinium]alkanes” (Sterling Drug Inc., priority 1977, dated 1980)
Read-outs that look alike come from different tables or passages of the source.

Experiments:
P. mirab. MGH-1 = test: In vitro antibacterial activity, MIC (modified Autotiter method); assay type: cell-based, Proteus mirabilis; settings: 18-20 hours at 37° C.; for MIC: Proteus mirabilis, 20 h, read-out: MIC P. mirab. MGH-1
Method in brief: (§1)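 MIC values come from a twofold dilution series spanning final concentrations of 500 down to 0.06 mcg./ml. Dilutions were prepared automatically in sterile water from a 1,000 mcg./ml. solution before inoculated double-strength glucose-containing semisynthetic medium was added.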

K. pneum. 39645 = test: as above; assay type: cell-based, Klebsiella pneumoniae; settings: 18-20 hours at 37° C.; for MIC: Klebsiella pneumoniae, 20 h, read-out: MIC K. pneum. 39645
Method in brief: as §1

S. Aureus ATCC 6538 = test: Effect of serum on bacteriostatic activity (serial tube dilution test); assay type: cell-based, Staphyloccocus aureus; settings: for Fold Increase in MIC S. Aureus ATCC 6538: 40% vs 0% horse serum; for MIC: Staphylococcus aureus, ATCC6538
Method: (§2) Antibacterial effectiveness in the presence of serum was determined for representative examples by the standard serial tube dilution test wherein paired comparisons of minimum inhibitory concentrations (MIC) were determined in the absence and in the presence of heat inactivated (30 min. at 56° C.) horse serum (40%) in the test medium. The results are expressed as the fold increase in MIC (mcg./ml.) versus Staphyloccocus aureus and Escherichia coli caused by the presence of serum and are presented in Table B hereinbelow.

A. niger 16404 = test: In vitro antifungal activity, MIC (modified Autotiter method); assay type: cell-based, Aspergillus niger; settings: 18-20 hours at 37° C.; for MIC: Aspergillus niger, 16404, 20 h, read-out: MIC A. niger 16404
Method in brief: as §1

[1] = Acute oral toxicity (ALD50); assay type: in vivo; settings: mouse, in vivo, po, mice, read-out: 7-Day ALD50
Method: (§3) The acute oral toxicity (ALD50) of several representative examples was determined as follows: Groups of 3 young adult male Swiss-Webster strain albino mice were fasted approximately 4 hours before medication and then medicated once orally by stomach tube.

[2] = system: young adult male Swiss-Webster strain albino mice; test: Acute oral toxicity (ALD50); assay type: in vivo
Method: as §3

S. pyogen. C203 = test: In vitro antibacterial activity, MIC (modified Autotiter method); assay type: cell-based, Streptococcus pyogenes; settings: 18-20 hours at 37° C.; for MIC: Streptococcus pyogenes, 20 h, read-out: MIC S. pyogen. C203
Method in brief: as §1

S. Aureus Smith = test: as above; assay type: cell-based, Staphylococcus aureus; settings: 18-20 hours at 37° C.; for MIC: Staphylococcus aureus, 20 h, read-out: MIC S. Aureus Smith
Method in brief: as §1

T. menta. 9129 = test: In vitro antifungal activity, MIC (modified Autotiter method); assay type: cell-based, Trichophyton mentagrophytes; settings: 18-20 hours at 37° C.; for MIC: Trichophyton mentagrophytes, 20 h, read-out: MIC T. menta. 9129
Method in brief: as §1

C. albicans 10231 = test: as above; assay type: cell-based, Candida albicans; settings: 18-20 hours at 37° C.; for MIC: Candida albicans, 10231, 20 h, read-out: MIC C. albicans 10231
Method in brief: as §1

C. albicans Wisc. = test: as above; assay type: cell-based, Candida albicans; settings: 18-20 hours at 37° C.; for MIC: Candida albicans, 20 h, read-out: MIC C. albicans Wisc.
Method in brief: as §1

E. coli Vogel = test: In vitro antibacterial activity, MIC (modified Autotiter method); assay type: cell-based, Escherichia coli; settings: 18-20 hours at 37° C.; for MIC: Escherichia coli, 20 h, read-out: MIC E. coli Vogel
Method in brief: as §1

E. coli AB1932-1 = test: as above; assay type: cell-based, Escherichia coli; settings: 18-20 hours at 37° C.; for MIC: Escherichia coli, AB19321, 20 h, read-out: MIC E. coli AB1932-1
Method in brief: as §1

E. coli 100/B22 = test: as above; assay type: cell-based, Escherichia coli; settings: for MIC: Escherichia coli, 100/B22, 20 h, read-out: MIC E. coli 100/B22, 18-20 hours at 37° C.
Method in brief: as §1

Ps. aerug. MGH-2 = test: as above; assay type: cell-based, Pseudomonas aeruginosa; settings: 18-20 hours at 37° C.; for MIC: Pseudomonas aeruginosa, 20 h, read-out: MIC Ps. aerug. MGH-2
Method in brief: as §1

E. Coli ATCC 8739 = test: Effect of serum on bacteriostatic activity (serial tube dilution test); assay type: cell-based, Escherichia coli; settings: for Fold Increase in MIC E. Coli ATCC 8739: 40% vs 0% horse serum; for MIC: Escherichia coli, ATCC8739
Method: as §2

[3] = 40% heat inactivated horse serum, read-out: MIC S. Aureus ATCC 6538 40% Serum
[4] = read-out: MIC S. Aureus ATCC 6538 0% Serum
[5] = suspension in 1% gum tragacanth
[6] = 125 mg/kg oral, suspension in 1% G.T.
[7] = 250 mg/kg oral, suspension in 1% G.T.
[8] = 500 mg/kg oral, suspension in 1% G.T.
[9] = 1000 mg/kg oral, suspension in 1% G.T.
[10] = 40% heat inactivated horse serum, read-out: MIC E. Coli ATCC 8739 40% Serum
[11] = read-out: MIC E. Coli ATCC 8739 0% Serum
[12] = 125 mg/kg oral, aqueous solution
[13] = 250 mg/kg oral, aqueous solution
[14] = 500 mg/kg oral, aqueous solution
[15] = 1000 mg/kg oral, aqueous solution

## CCCCCCCCCNc1cc[n+](CCCCCCCC[n+]2ccc(NCCCCCCCCC)cc2)cc1 [Example 29C, 1,8-bis-[4-(nonylamino)-1-pyridinium]octane dibromide]
P. mirab. MGH-1
  MIC: 3.9 µg/mL
K. pneum. 39645
  MIC: 1.95 µg/mL
S. Aureus ATCC 6538
  Fold Increase in MIC S. Aureus ATCC 6538: 16 fold
S. Aureus ATCC 6538; [3]
  MIC: 7.8 µg/mL
S. Aureus ATCC 6538; [4]
  MIC: 0.5 µg/mL
A. niger 16404
  MIC: 7.8 µg/mL
[1]; [5]
  LD50 at 168 h: > 1000 mg/kg
[2]; [6]
  Mortality 7 Days: 0/3
  Mortality 24 Hrs: 0/3
[2]; [7]
  Mortality 7 Days: 0/3
  Mortality 24 Hrs: 0/3
[2]; [8]
  Mortality 7 Days: 0/3
  Mortality 24 Hrs: 0/3
[2]; [9]
  Mortality 7 Days: 0/3
  Mortality 24 Hrs: 0/3
S. pyogen. C203
  MIC: 1.95 µg/mL
S. Aureus Smith
  MIC: 1 µg/mL
T. menta. 9129
  MIC: 1.95 µg/mL
C. albicans 10231
  MIC: 3.9 µg/mL
C. albicans Wisc.
  MIC: 3.9 µg/mL
E. coli Vogel
  MIC: 3.9 µg/mL
E. coli AB1932-1
  MIC: 1.95 µg/mL
E. coli 100/B22
  MIC: 1.95 µg/mL
Ps. aerug. MGH-2
  MIC: 7.8 µg/mL
E. Coli ATCC 8739
  Fold Increase in MIC E. Coli ATCC 8739: 16 fold
E. Coli ATCC 8739; [10]
  MIC: 62.5 µg/mL
E. Coli ATCC 8739; [11]
  MIC: 3.9 µg/mL

## CCCCCCCNc1cc[n+](CCCCCCCCCC[n+]2ccc(NCCCCCCC)cc2)cc1 [Example 26, 1,10-bis-[4-(heptylamino)-1-pyridinium]decane dibromide]
P. mirab. MGH-1
  MIC: 6 µg/mL
K. pneum. 39645
  MIC: 1.49 µg/mL
S. Aureus ATCC 6538
  Fold Increase in MIC S. Aureus ATCC 6538: 16 fold
S. Aureus ATCC 6538; [3]
  MIC: 1.95 µg/mL
S. Aureus ATCC 6538; [4]
  MIC: 0.125 µg/mL
A. niger 16404
  MIC: 2.98 µg/mL
[1]; [5]
  LD50 at 168 h: > 1000 mg/kg
[2]; [6]
  Mortality 7 Days: 0/3
  Mortality 24 Hrs: 0/3
[2]; [7]
  Mortality 7 Days: 0/3
  Mortality 24 Hrs: 0/3
[2]; [8]
  Mortality 7 Days: 0/3
  Mortality 24 Hrs: 0/3
[2]; [9]
  Mortality 7 Days: 0/3
  Mortality 24 Hrs: 0/3
S. pyogen. C203
  MIC S. pyogen. C203: 1.95 µg/mL
S. Aureus Smith
  MIC: 0.37 µg/mL
T. menta. 9129
  MIC: 0.75 µg/mL
C. albicans 10231
  MIC C. albicans 10231: 0.75 µg/mL
C. albicans Wisc.
  MIC: 1.49 µg/mL
E. coli Vogel
  MIC: 0.75 µg/mL
E. coli AB1932-1
  MIC: 0.75 µg/mL
E. coli 100/B22
  MIC: 0.75 µg/mL
Ps. aerug. MGH-2
  MIC: 11.9 µg/mL
E. Coli ATCC 8739
  Fold Increase in MIC E. Coli ATCC 8739: 16 fold
E. Coli ATCC 8739; [10]
  MIC: 7.8 µg/mL
E. Coli ATCC 8739; [11]
  MIC: 0.5 µg/mL

## CCCCCCCNc1cc[n+](CCCCCCCCCCCCCC[n+]2ccc(NCCCCCCC)cc2)cc1 [Example 2, 1,14-bis-[4-(heptylamino)-1-pyridinium]tetradecane dichloride]
P. mirab. MGH-1
  MIC P. mirab. MGH-1: 3.9 µg/mL
K. pneum. 39645
  MIC K. pneum. 39645: 3.9 µg/mL
A. niger 16404
  MIC A. niger 16404: 7.8 µg/mL
[1]; [5]
  LD50 at 168 h: 1000 mg/kg
[2]; [6]
  Mortality 7 Days: 0/3
  Mortality 24 Hrs: 0/3
[2]; [7]
  Mortality 7 Days: 1/3
  Mortality 24 Hrs: 0/3
[2]; [8]
  Mortality 7 Days: 0/3
  Mortality 24 Hrs: 0/3
[2]; [9]
  Mortality 7 Days: 1/3
  Mortality 24 Hrs: 0/3
S. pyogen. C203
  MIC: 1 µg/mL
S. Aureus Smith
  MIC: 1 µg/mL
T. menta. 9129
  MIC: 1 µg/mL
C. albicans 10231
  MIC C. albicans 10231: 3.9 µg/mL
C. albicans Wisc.
  MIC C. albicans Wisc.: 7.8 µg/mL
E. coli Vogel
  MIC: 1.95 µg/mL
E. coli AB1932-1
  MIC E. coli AB1932-1: 1.0 µg/mL
E. coli 100/B22
  MIC: 1 µg/mL
Ps. aerug. MGH-2
  MIC: 1.95 µg/mL

## CCCCC(CC)CNc1cc[n+](CCCCCCCCCCCC[n+]2ccc(NCC(CC)CCCC)cc2)cc1 (stereo not drawn) [Example 41C, 1,12-bis-[4-(2-ethylhexylamino)-1-pyridinium]dodecane dibromide]
P. mirab. MGH-1
  MIC: 3.9 µg/mL
K. pneum. 39645
  MIC: 1.95 µg/mL
S. Aureus ATCC 6538
  Fold Increase in MIC S. Aureus ATCC 6538: 32 fold
S. Aureus ATCC 6538; [3]
  MIC: 7.8 µg/mL
S. Aureus ATCC 6538; [4]
  MIC: 0.25 µg/mL
A. niger 16404
  MIC: 3.9 µg/mL
[1]; [5]
  LD50 at 168 h: > 1000 mg/kg
[2]; [6]
  Mortality 7 Days: 0/3
  Mortality 24 Hrs: 0/3
[2]; [7]
  Mortality 7 Days: 0/3
  Mortality 24 Hrs: 0/3
[2]; [8]
  Mortality 7 Days: 0/3
  Mortality 24 Hrs: 0/3
[2]; [9]
  Mortality 7 Days: 0/3
  Mortality 24 Hrs: 0/3
S. pyogen. C203
  MIC: 0.5 µg/mL
S. Aureus Smith
  MIC: 0.5 µg/mL
T. menta. 9129
  MIC: 1 µg/mL
C. albicans 10231
  MIC: 1 µg/mL
C. albicans Wisc.
  MIC: 1 µg/mL
E. coli Vogel
  MIC: 1 µg/mL
E. coli AB1932-1
  MIC: 1 µg/mL
E. coli 100/B22
  MIC: 1 µg/mL
Ps. aerug. MGH-2
  MIC: 3.9 µg/mL
E. Coli ATCC 8739
  Fold Increase in MIC E. Coli ATCC 8739: 64 fold
E. Coli ATCC 8739; [10]
  MIC: 62.5 µg/mL
E. Coli ATCC 8739; [11]
  MIC: 1 µg/mL

## CCCCCCNc1cc[n+](CCCCCCCCCCCCCC[n+]2ccc(NCCCCCC)cc2)cc1 [Example 6]
P. mirab. MGH-1
  MIC P. mirab. MGH-1: 3.9 µg/mL
K. pneum. 39645
  MIC K. pneum. 39645: 1.0 µg/mL
A. niger 16404
  MIC A. niger 16404: 3.9 µg/mL
[1]; aqueous solution
  LD50 at 168 h: 315 mg/kg
[2]; [12]
  Mortality 7 Days: 1/3
  Mortality 24 Hrs: 1/3
[2]; [13]
  Mortality 7 Days: 1/3
  Mortality 24 Hrs: 0/3
[2]; [14]
  Mortality 7 Days: 2/3
  Mortality 24 Hrs: 2/3
[2]; [15]
  Mortality 7 Days: 3/3
  Mortality 24 Hrs: 3/3
S. pyogen. C203
  MIC S. pyogen. C203: 1.95 µg/mL
S. Aureus Smith
  MIC S. Aureus Smith: 0.5 µg/mL
T. menta. 9129
  MIC T. menta. 9129: 0.5 µg/mL
C. albicans 10231
  MIC C. albicans 10231: 1.0 µg/mL
C. albicans Wisc.
  MIC C. albicans Wisc.: 1.95 µg/mL
E. coli Vogel
  MIC E. coli Vogel: 1.0 µg/mL
E. coli AB1932-1
  MIC E. coli AB1932-1: 0.5 µg/mL
E. coli 100/B22; 18-20 hours at 37° C.
  MIC E. coli 100/B22: 0.5 µg/mL
Ps. aerug. MGH-2
  MIC Ps. aerug. MGH-2: 3.9 µg/mL
